Measurements from patent publication US20090076029A1 (Palatin Technologies, Inc., priority 2007, published 2009).
“Also recorded” adds a separate entry of the source. Where two headings read alike, the source gives them in different places.

Key:
MC1-R [1] = target: T1, MC1-R; test: Competitive inhibition assay using [I125]-NDP-α-MSH, MC1-R membranes; type: binding, mouse; details: for Inhibition at 1 μM (NDP-α-MSH) MC1-R: 1 μM compound
T1 construct: other: 1 μM compound

hMC3-R [2] = target: T2, hMC3-R; test: Competitive inhibition assay using [I125]-NDP-α-MSH, hMC3-R membranes; type: binding, human; details: read-out: Ki (nM) (NDP-α-MSH) MC3-R
T2 construct: expressed in transfected cells; host or cells: HEK-293
Procedure, shortened: (§1)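 Single-concentration displacement (usually 1 μM compound) of 0.2–0.4 nM [125I]-NDP-α-MSH, run 90 min at room temperature in pH 7.2 HEPES containing MgCl2, CaCl2 and KCl. Receptor sources: transfected HEK-293 membranes for human MC3-R/MC4-R/MC5-R, B-16 mouse melanoma membranes for MC1-R. Bound counts normalised to 1 μM α-MSH-defined specific binding; triplicates averaged, values below 0% set to 0%.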

hMC4-R [3] = target: T3, hMC4-R; test: Competitive inhibition assay using [I125]-NDP-α-MSH, hMC4-R membranes; type: binding, human; details: for attenuation of binding of α-MSH and AgRP to MC4-R: both ligands (NDP-α-MSH and AgRP), summary
T3 construct: expressed in transfected cells; host or cells: HEK-293

hMC5-R [4] = target: T4, hMC5-R; test: Competitive inhibition assay using [I125]-NDP-α-MSH, hMC5-R membranes; type: binding, human; details: read-out: Ki (nM) (NDP-α-MSH) MC5-R
T4 construct: expressed in transfected cells; host or cells: HEK-293
Procedure, shortened: as §1

hMC4-R [5] = system: T3, hMC4-R; type: binding, human; details: for Inhibition at 1 μM (AgRP) MC4-R: 1 μM compound
Procedure, shortened: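 Membranes from hMC4-R-expressing cells incubated 1 h at 37 °C with 0.2 nM [I^125]-AgRP (83-132) and increasing compound in 25 mM HEPES pH 7.5, 100 mM NaCl, 2 mM CaCl2, 2 mM MgCl2, 0.3 mM 1,10-phenanthroline, 0.5% BSA. Filtration, gamma counting; specific binding kept ≤10% of added counts.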

hMC4-R [6] = system: T3, hMC4-R; test: cAMP functional assay in HEK-293 cells expressing MC4-R (agonist, neutral antagonist/Schild); type: cell-based, human; details: for intrinsic activity at MC4-R: NDP-α-MSH maximal stimulation = 1.0; for functional status at MC4-R: mostly at 1 μM
Procedure, shortened: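 Cells in EBSS/HEPES pH 7.5 with 0.3 mM IBMX, exposed to compound (0.05-5000 nM, 1% DMSO) for 1 h at 37 °C; cAMP by EIA, EC50 by nonlinear regression. Antagonism: 30 min compound pre-incubation, then 1 nM NDP-α-MSH for 1 h; Schild analysis over 0.005-5000 nM agonist gives pA2.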

MC1-R [7] = system: T5, MC1-R; test: cAMP functional assay, B-16 mouse melanoma cells expressing MC1-R; type: cell-based; details: cAMP assay at 1 μM
T5 construct: from B-16 mouse melanoma cells (containing MC1-R); endogenous in cells; host or cells: B-16 mouse melanoma cells
Description: (§2) General method for EC50 determination in functional activity assay. Functional evaluation of compounds at melanocortin receptors was performed by measuring the accumulation of intracellular cAMP in HEK-293 cells expressing hMC3-R, hMC4-R or hMC5-R, and in B-16 mouse melanoma cells expressing MC1-R. Cells suspended in Earle's Balanced Salt Solution containing 10 mM HEPES (pH 7.5), 5 mM MgCl2, 1 mM glutamine, 0.1% albumin and 0.6 mM 3-isobutyl-1-methyl-xanthine, a phosphodiesterase inhibitor, were plated in 96 well plates at a density of 0.5×10^5 cells per well. Cells were incubated with the test compounds in the presence or absence of α-MSH for 1 hour at 37° C. cAMP levels in the cell lysates were measured using an EIA kit (Amersham). Data analysis and EC50 values were determined using nonlinear regression analysis with Prism Graph-Pad software.
(§3) Functional status. The agonist/antagonist status with respect to MC1-R, MC-3R, MC4-R and MC5-R of certain compounds of the invention was determined.

hMC3-R [8] = system: T2, hMC3-R; test: cAMP functional assay, HEK-293 cells expressing hMC3-R; type: cell-based, human; details: cAMP assay at 1 μM
Description: as §2, §3

hMC5-R [9] = system: T4, hMC5-R; test: cAMP functional assay, HEK-293 cells expressing hMC5-R; type: cell-based, human; details: cAMP assay at 1 μM
Description: as §2, §3

[10] = MC4-R membranes, Table 1, read-out: Ki (nM) I125-NPD-α-MSH
[11] = read-out: Ki (nM) (NDP-α-MSH) MC4-R
[12] = MC4-R membranes, Table 1, read-out: Ki (nM) I125-AgRP
[13] = cAMP assay, read-out: EC50 (nM) at MC4-R

## Cc1[nH]c2ccccc2c1CCN1C[C@H](CCCNC(=N)N)N(C(=O)[C@H](N)Cc2ccc3ccccc3c2)C[C@H]1C [Example 9, N-(3-{1-(2(R)-Amino-3-naphthalen-2-yl-propionyl)-5(R)-methyl-4-[2-(2-methyl-1H-indol-3-yl)-ethyl]-piperazin-2(S)-yl}-propyl)-guanidine]
MC1-R [1]
  Ki: 148 nM
  Inhibition at 1 μM (NDP-α-MSH) MC1-R: 73%
hMC3-R [2]
  Ki: 451 nM
hMC4-R [3]; [10]
  Ki: 26 nM
hMC4-R [3]
  attenuation of binding of α-MSH and AgRP to MC4-R: attenuate the binding of both α-MSH and AgRP to MC4-R
hMC4-R [3]; [11]
  Ki: 26 nM
hMC5-R [4]
  Ki: 293 nM
hMC4-R [5]
  Inhibition at 1 μM (AgRP) MC4-R: 92%
hMC4-R [5]; [12]
  Ki: 35 nM
hMC4-R [5]; read-out: Ki (nM) (AgRP) MC4-R
  Ki: 35 nM
hMC4-R [6]; MC4-R, Table 1
  functional status (pAg, Ag, Antag, Inactive): Ag
hMC4-R [6]; MC4-R, Table 1, read-out: EC50
  EC50: 384 nM
hMC4-R [6]
  intrinsic activity at MC4-R: 0.9
hMC4-R [6]; cAMP assay
  functional status at MC4-R: agonist (intrinsic activity of 0.7 (70%) or higher is classified as an agonist)
hMC4-R [6]; [13]
  EC50: > 384 nM
MC1-R [7]
  functional status at MC1-R: partial agonist (intrinsic activity between 0.1 (10%) and 0.7 (70%) is classified as a partial agonist)
hMC3-R [8]
  functional status at MC3-R: no intrinsic activity (intrinsic activity below 0.1 (10%) is classified as inactive or having no intrinsic activity)
hMC5-R [9]
  functional status at MC5-R: agonist (intrinsic activity of 0.7 (70%) or higher is classified as an agonist)

## Cc1cc(Cl)ccc1C[C@@H](N)C(=O)N1C[C@@H](C)N(CCc2c[nH]c3ccccc23)C[C@@H]1CCCNC(=N)N [Example 10, N-(3-{1-(2(R)-Amino-(4-chloro-2-methyl-phenyl)-propionyl)-5(R)-methyl-4-[2-(1H-indol-3-yl)-ethyl]-piperazin-2(S)-yl}-propyl)-guanidine]
MC1-R [1]
  Ki: 1730 nM
  Inhibition at 1 μM (NDP-α-MSH) MC1-R: 40%
hMC3-R [2]
  Ki: 177 nM
hMC4-R [3]; [10]
  Ki: 5 nM
hMC4-R [3]
  attenuation of binding of α-MSH and AgRP to MC4-R: attenuate the binding of both α-MSH and AgRP to MC4-R
hMC4-R [3]; [11]
  Ki: 5 nM
hMC5-R [4]
  Ki: 360 nM
hMC4-R [5]
  Inhibition at 1 μM (AgRP) MC4-R: 97%
hMC4-R [5]; [12]
  Ki: 5 nM
hMC4-R [5]; read-out: Ki (nM) (AgRP) MC4-R
  Ki: 5 nM
hMC4-R [6]; MC4-R, Table 1
  functional status (pAg, Ag, Antag, Inactive): pAg (“pAg” means partial agonist)
hMC4-R [6]; MC4-R, Table 1, read-out: EC50
  EC50: 7 nM
hMC4-R [6]
  intrinsic activity at MC4-R: 1
hMC4-R [6]; cAMP assay
  functional status at MC4-R: partial agonists; also recorded: full agonist
hMC4-R [6]; [13]
  EC50: > 7 nM
MC1-R [7]
  functional status at MC1-R: no intrinsic activity (intrinsic activity below 0.1 (10%) is classified as inactive or having no intrinsic activity)
hMC3-R [8]
  functional status at MC3-R: no intrinsic activity (intrinsic activity below 0.1 (10%) is classified as inactive or having no intrinsic activity)
hMC5-R [9]
  functional status at MC5-R: no intrinsic activity (intrinsic activity below 0.1 (10%) is classified as inactive or having no intrinsic activity)

## Cc1cc(Cl)ccc1C[C@@H](N)C(=O)N1C[C@@H](C)N(C(=O)Cc2ccc3ccccc3c2)C[C@@H]1CCCNC(=N)N [Example 11, N-{3-[1-[2(R)-amino-3-(4-chloro-2-dimethyl-phenyl)-propionyl]-5(R)-methyl-4-(2-naphthalen-2-yl-acetyl)-piperazin-2(S)-yl]-propyl}-guanidine]
MC1-R [1]
  Ki: 462 nM
  Inhibition at 1 μM (NDP-α-MSH) MC1-R: 3%
hMC3-R [2]
  Ki: 398 nM
hMC4-R [3]; [10]
  Ki: 3 nM
hMC4-R [3]
  attenuation of binding of α-MSH and AgRP to MC4-R: attenuate the binding of both α-MSH and AgRP to MC4-R
hMC4-R [3]; [11]
  Ki: 3 nM
hMC5-R [4]
  Ki: 774 nM
hMC4-R [5]
  Inhibition at 1 μM (AgRP) MC4-R: 89%
hMC4-R [5]; [12]
  Ki: 27 nM
hMC4-R [5]; read-out: Ki (nM) (AgRP) MC4-R
  Ki: 27 nM
hMC4-R [6]; MC4-R, Table 1
  functional status (pAg, Ag, Antag, Inactive): Ag
hMC4-R [6]; MC4-R, Table 1, read-out: EC50
  EC50: 18 nM
hMC4-R [6]
  intrinsic activity at MC4-R: 0.9
hMC4-R [6]; cAMP assay
  functional status at MC4-R: agonist (intrinsic activity of 0.7 (70%) or higher is classified as an agonist)
hMC4-R [6]; [13]
  EC50: 18 nM
MC1-R [7]
  functional status at MC1-R: partial agonist (intrinsic activity between 0.1 (10%) and 0.7 (70%) is classified as a partial agonist)
hMC3-R [8]
  functional status at MC3-R: partial agonist (intrinsic activity between 0.1 (10%) and 0.7 (70%) is classified as a partial agonist)
hMC5-R [9]
  functional status at MC5-R: agonist (intrinsic activity of 0.7 (70%) or higher is classified as an agonist)
